Data published in US4176116A, “Dipeptide derivatives” (Hoffmann-La Roche Inc., priority 1976, dated 1979).
Peptide text beside a SMILES is read from it. * marks the point of attachment. Tos = Cc1ccc(S(=O)(=O)*)cc1; Isobutyryl = CC(C)C(=O)*; Pentanoyl = CCCCC(=O)*; PhAc = O=C(Cc1ccccc1)*; Piv = CC(C)(C)C(=O)*; Bz = O=C(c1ccccc1)*

Tests used:
[1] = target: porcine pancreatic elastase (Sus scrofa, UniProt P00772); assay: in vitro elastase inhibition, test method of Visser and Blout; type: biochemical; details: porcine pancreatic elastase as the enzyme; read-out: Ki (inhibitor constant)
porcine pancreatic elastase, sequence (P00772 27-266): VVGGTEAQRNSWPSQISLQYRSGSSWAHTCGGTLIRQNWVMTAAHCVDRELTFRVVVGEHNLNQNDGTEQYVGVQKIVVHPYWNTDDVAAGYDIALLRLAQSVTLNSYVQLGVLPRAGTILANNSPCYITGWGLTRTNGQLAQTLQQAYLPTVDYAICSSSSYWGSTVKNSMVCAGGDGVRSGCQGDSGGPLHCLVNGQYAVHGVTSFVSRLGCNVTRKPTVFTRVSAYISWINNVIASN
Excerpt: Acta 268 (1972) 257, using porcine pancreatic elastase as the enzyme. The results obtained with representative dipeptide derivatives in this test are given in Table I hereinafter, the Ki being the inhibitor constant in millimoles per liter: […]

[2] = target: T1, human granulocyte elastase (Homo sapiens, UniProt P08246); assay: as above; type: biochemical; details: human granulocyte elastase as the enzyme; read-out: I50 (concentration which gives 50% inhibition of the human granulocyte elastase)
T1 sequence (P08246 30-267): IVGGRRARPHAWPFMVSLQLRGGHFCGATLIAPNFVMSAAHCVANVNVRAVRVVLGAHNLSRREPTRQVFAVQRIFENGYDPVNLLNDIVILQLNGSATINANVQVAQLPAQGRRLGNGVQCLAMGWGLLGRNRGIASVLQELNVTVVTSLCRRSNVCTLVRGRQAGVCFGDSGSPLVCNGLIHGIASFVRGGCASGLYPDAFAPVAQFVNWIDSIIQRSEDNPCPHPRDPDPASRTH
Excerpt: Acta 268 (1972) 257, using porcine pancreatic elastase as the enzyme. The results obtained with representative dipeptide derivatives in this test are given in Table I hereinafter, the Ki being the inhibitor constant in millimoles per liter:
The result obtained with a representative dipeptide derivative in this test is given in Table II hereinafter, the I50 being the concentration in millimoles per liter which gives 50% inhibition of the human granulocyte elastase: […]

Ki [1] [µM]	IC50 [2] [µM]	Structure (SMILES)
10	–	CCNC(=O)[C@@H]1CCCN1C(=O)[C@H](C)NC(=O)C1CCCCC1 [N-Cyclohexylcarbonyl-L-alanyl-L-proline ethylamide]
60	–	CCNC(=O)[C@@H]1CCCN1C(=O)[C@H](C)NC(=O)C(C)C [N-Isobutanoyl-L-alanyl-L-proline ethylamide] (Isobutyryl-Ala-Pro-NHEt)
90	–	CCNC(=O)[C@@H]1CCCN1C(=O)[C@H](C)NC(=O)C(C)(C)C [N-Pivaloyl-L-alanyl-L-proline ethylamide] (Piv-Ala-Pro-NHEt)

More lines, now with the values behind:

Structure (SMILES)	Ki [1] [µM]	IC50 [2] [µM]
CCCCC(=O)N[C@@H](C)C(=O)N1CCC[C@H]1C(=O)NCC [N-(n-Valeryl)-L-alanyl-L-proline ethylamide] (Pentanoyl-Ala-Pro-NHEt)	80	–
CCNC(=O)[C@@H]1CCCN1C(=O)[C@H](C)NS(=O)(=O)c1ccc(C)cc1 [N-(p-Toluenesulphonyl)-L-alanyl-L-proline ethylamide] (Tos-Ala-Pro-NHEt)	–	900
CCNC(=O)[C@H](C)NC(=O)[C@H](C)NC(=O)c1ccccc1 [N-Benzoyl-L-alanyl-L-alanine ethylamide] (Bz-Ala-Ala-NHEt)	120	–
CCNC(=O)[C@@H]1CCCN1C(=O)[C@H](C)NC(=O)c1ccccc1 [N-Benzoyl-L-alanyl-L-proline ethylamide] (Bz-Ala-Pro-NHEt)	26	–
CCNC(=O)[C@@H]1CCCN1C(=O)[C@H](C)NC(=O)Cc1ccccc1 [N-Phenacetyl-L-alanyl-L-proline ethylamide] (PhAc-Ala-Pro-NHEt)	86	–
